Measured values: US20190275169A1, “TARGETED IMMUNOSUPPRESSION FOR OPTOGENETIC INTERVENTION” (Circuit Therapeutics, Inc., priority 2018, published 2019)

Tested on: light responsive excitatory opsin protein ChR2 delivered virally via AAV and expressed in the sensory nerve of a mouse
Assay: Light-responsiveness over time after AAV delivery of ChR2 to the sensory nerve, immunosuppressant paradigms versus saline (FIG. 2A-2I)
Format: in vivo
Conditions: drug paradigm and schedule as in FIG. 1; light approx. 450 nm
Excerpt: Referring to FIG. 1, various drug groupings are listed (2) which have been known to modulate the immune system, including cyclosporine (“Cyc”), cyclosporine+mycophenolate mofetil (“MMF”), dexamethasone, rapamycin in various dosage configurations, rapamycin+dexamethasone+FK506 (also known as “tacrolimus”; an immunosuppressive drug used mainly after organ transplant to lower rejection risk), and metformin (a medication utilized in treating diabetes and polycystic ovary syndrome which also has been inculcated in immune suppression). Each of these listed drugs has previously been approved by the U.S. F.D.A. for different indications, and the depicted drug schedules associated with each grouping feature dosing and scheduling information that previously has been published in different treatment paradigms, such as for cardiovascular or transplant rejection scenarios.
Thus, referring again to the table (2) of FIG. 1, for cyclosporine, a subcutaneous (or “subQ” or “SQ”) regime is listed, wherein cyclosporine is injected subcutaneously for one week prior to injection of genetic material, and then every two days after, as is a cyclosporine+MMF combination (noted as “Cyc+MMF”) which has been used with success, for example, in clinical trials with adeno associated virus (“AAV”) gene therapies; the term “I.P.” or “i.p.” refers to intraperitoneal injection. […]

SMILES: CN(C)C(=N)N=C(N)N [metformin]
- effect on proportion of animals still exhibiting light-responsiveness versus saline: does not seem to have a significant impact
